Test results as given in US20210106698A1, “LIVER-SPECIFIC MRI CONTRAST AGENT INCLUDING MANGANESE SILICATE NANOPARTICLES” (POSTECH ACADEMY-INDUSTRY FOUNDATION, priority 2017, published 2021).

How the values were obtained:
[1] = T1-weighted MRI of supernatants with released Mn2+ ions (R1, r1); format: physicochemical; conditions: MnCl2 aqueous solution
Excerpt: The contrast signal intensity of the photographed image was digitized (R1, unit=[…]), and shown in the graph of FIG. 9b. It is inferred that the released Mn^2+ ions can increase the contrast effect in T1-weighted image, on the basis that FIG. 9b is almost consistent with the graph of the release rate of Mn^2+ ions for each particle shown in FIG. 8e.
Next, the relationship between the concentration of Mn^2+ ions and the contrast intensity R1 of the image is shown in the graph of FIG. 9c. The slope of this graph is expressed as r1, and is a unique value for each material.

[2] = T1 relaxation / T1-weighted image of HMS suspensions (3.0-T MR scanner); format: physicochemical; conditions: comparison value for free Mn2+
Method: The release profile of manganese ions from HMS was quantified at room temperature using 8 mg of HMS suspensions in 16 ml of citrate buffer at pH 5 and pH 6.2 and distilled water. 4 ml of each HMS suspensions was collected from samples at 15 minutes, 1 hour, 7 hours and 20 hours, and the nanoparticles (NPs) of the sample were removed by centrifugation at 15,000 rpm for 10 minutes, and each supernatant was filtered by using syringe filter with […] of pore size. The amount of each released manganese ion and the T1 relaxation time of the proton in each supernatant were quantified using ICP-AES and a 3.0-T clinical MR scanner (Philips, Achieva ver. 1.2, Philips Medical Systems, Best, The Netherlands).
The Mn release property and T1 contrast enhancing property of HMS prepared in Example 1-2 were tested according to Example 1-3.

SMILES: [Cl][Mn][Cl] [MnCl2]
- r1 value for pure Mn^2+ ions [1]: about 7.4
- r1 value of free manganese ions [2]: 7.8 s⁻¹ mM⁻¹
